Results as given in PubChem BioAssay (NCI).
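At the GI50, growth is halved. The concentration for full growth arrest is given as TGI.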

Legend:
Assay in all cases: inhibition of tumour cell growth, NCI panel, 384-well format
HS 578T breast = tested on: HS 578T breast
K-562 leukemia = tested on: K-562 leukemia
HOP-92 NSCLC = tested on: HOP-92 NSCLC
CCRF-CEM leukemia = tested on: CCRF-CEM leukemia
NCI-H23 lung = tested on: NCI-H23 lung
MDA-MB-435 melanoma = tested on: MDA-MB-435 melanoma
SK-MEL-5 melanoma = tested on: SK-MEL-5 melanoma
A549 NSCLC = tested on: A549 NSCLC
HCT-15 colon = tested on: HCT-15 colon
MDA-MB-231 breast = tested on: MDA-MB-231 breast
NCI-H522 lung = tested on: NCI-H522 lung
SF-295 CNS = tested on: SF-295 CNS
EKVX NSCLC = tested on: EKVX NSCLC
SF-539 CNS = tested on: SF-539 CNS
A498 renal = tested on: A498 renal
NCI/ADR-RES ovarian = tested on: NCI/ADR-RES ovarian
OVCAR-3 ovarian = tested on: OVCAR-3 ovarian
SNB-75 CNS = tested on: SNB-75 CNS
OVCAR-4 ovarian = tested on: OVCAR-4 ovarian
IGROV1 ovarian = tested on: IGROV1 ovarian
ACHN renal = tested on: ACHN renal
TK-10 renal = tested on: TK-10 renal
NCI-H460 NSCLC = tested on: NCI-H460 NSCLC
SR leukemia = tested on: SR leukemia
NCI-H226 lung = tested on: NCI-H226 lung
PC-3 prostate = tested on: PC-3 prostate
SNB-19 CNS = tested on: SNB-19 CNS
CAKI-1 renal = tested on: CAKI-1 renal
RPMI-8226 leukemia = tested on: RPMI-8226 leukemia
OVCAR-8 ovarian = tested on: OVCAR-8 ovarian
SK-OV-3 ovarian = tested on: SK-OV-3 ovarian
SW-620 colon = tested on: SW-620 colon
U251 glioblastoma = tested on: U251 glioblastoma
NCI-H322M lung = tested on: NCI-H322M lung
MDA-MB-468 breast = tested on: MDA-MB-468 breast
SN12C renal = tested on: SN12C renal
HT29 colon = tested on: HT29 colon
BT-549 breast = tested on: BT-549 breast
MOLT-4 leukemia = tested on: MOLT-4 leukemia
HCC-2998 colon = tested on: HCC-2998 colon
T-47D breast = tested on: T-47D breast
786-0 renal = tested on: 786-0 renal
HOP-62 NSCLC = tested on: HOP-62 NSCLC
HL-60(TB) leukemia = tested on: HL-60(TB) leukemia
SF-268 CNS = tested on: SF-268 CNS
UO-31 renal = tested on: UO-31 renal
OVCAR-5 ovarian = tested on: OVCAR-5 ovarian
MCF7 breast = tested on: MCF7 breast

## Cc1ncc(CCCN(C)C)cc1Nc1ncc2c(n1)-c1ccc(C(F)(F)F)cc1NC(=S)C2
HS 578T breast
  GI50: < 10 nM
  TGI: 21.5 nM
K-562 leukemia
  GI50: < 10 nM
  TGI: < 10 nM
HOP-92 NSCLC
  GI50: < 10 nM
  TGI: 6.28 µM
CCRF-CEM leukemia
  GI50: < 10 nM
  TGI: < 10 nM
NCI-H23 lung
  GI50: < 10 nM
  TGI: < 10 nM
MDA-MB-435 melanoma
  GI50: < 10 nM
  TGI: < 10 nM
SK-MEL-5 melanoma
  GI50: < 10 nM
  TGI: 12.7 nM
A549 NSCLC
  GI50: < 10 nM
  TGI: 170 nM
HCT-15 colon
  GI50: < 10 nM
  TGI: 35.1 nM
MDA-MB-231 breast
  GI50: < 10 nM
  TGI: 12.2 µM
NCI-H522 lung
  GI50: < 10 nM
  TGI: < 10 nM
SF-295 CNS
  GI50: < 10 nM
  TGI: 17.1 nM
EKVX NSCLC
  GI50: 11.6 nM
  TGI: 17.8 µM
SF-539 CNS
  GI50: < 10 nM
  TGI: 117 nM
A498 renal
  GI50: < 10 nM
  TGI: 12.7 µM
NCI/ADR-RES ovarian
  GI50: 31.4 nM
  TGI: 179 nM
OVCAR-3 ovarian
  GI50: < 10 nM
  TGI: < 10 nM
SNB-75 CNS
  GI50: < 10 nM
  TGI: 15.2 nM
OVCAR-4 ovarian
  GI50: < 10 nM
  TGI: 13.2 µM
IGROV1 ovarian
  GI50: < 10 nM
  TGI: 16.1 µM
ACHN renal
  GI50: 44.4 nM
  TGI: 15.3 µM
TK-10 renal
  GI50: 1730 nM
  TGI: 19.7 µM
NCI-H460 NSCLC
  GI50: < 10 nM
  TGI: < 10 nM
SR leukemia
  GI50: < 10 nM
  TGI: < 10 nM
NCI-H226 lung
  GI50: 512 nM
  TGI: 6.71 µM
PC-3 prostate
  GI50: < 10 nM
  TGI: 14.3 µM
SNB-19 CNS
  GI50: < 10 nM
  TGI: 641 nM
CAKI-1 renal
  GI50: 59.2 nM
  TGI: 12.9 µM
RPMI-8226 leukemia
  GI50: < 10 nM
  TGI: < 10 nM
OVCAR-8 ovarian
  GI50: < 10 nM
  TGI: < 10 nM
SK-OV-3 ovarian
  GI50: < 10 nM
  TGI: 1690 nM
SW-620 colon
  GI50: < 10 nM
  TGI: 14.8 nM
U251 glioblastoma
  GI50: < 10 nM
  TGI: 11.2 µM
NCI-H322M lung
  GI50: 4.46 µM
  TGI: 19.8 µM
MDA-MB-468 breast
  GI50: < 10 nM
  TGI: < 10 nM
SN12C renal
  GI50: 138 nM
  TGI: 3.47 µM
HT29 colon
  GI50: < 10 nM
  TGI: < 10 nM
BT-549 breast
  GI50: < 10 nM
  TGI: 37.1 nM
MOLT-4 leukemia
  GI50: < 10 nM
  TGI: < 10 nM
HCC-2998 colon
  GI50: < 10 nM
  TGI: 13.9 nM
T-47D breast
  GI50: 37.5 nM
  TGI: 15.1 µM
786-0 renal
  GI50: < 10 nM
  TGI: 305 nM
HOP-62 NSCLC
  GI50: < 10 nM
  TGI: 37 nM
HL-60(TB) leukemia
  GI50: < 10 nM
  TGI: < 10 nM
SF-268 CNS
  GI50: < 10 nM
  TGI: 1990 nM
UO-31 renal
  GI50: 99 nM
  TGI: 19.8 µM
OVCAR-5 ovarian
  GI50: < 10 nM
  TGI: 173 nM
MCF7 breast
  GI50: < 10 nM
  TGI: 2270 nM
